In ChEMBL document CHEMBL5634144, “Design, synthesis and biological evaluation of novel DCLK1 inhibitor containing purine skeleton for the treatment of pancreatic cancer” (Eur J Med Chem, 2023):
Activity calls are given as the source filed them. The calls are words filed in the database; no cut-off is given here.

Key:
[1] = molecular target: T1, Serine/threonine-protein kinase DCLK1 (Homo sapiens) (UniProt O15075); experiment: Inhibition of DCLK1 (unknown origin) at 200 nM preincubated for 10 mins followed by substrate/ATP addition measured after 60 mins by mobility shift assay relative to control; settings: time 70.0 min
T1 sequence (whole entry): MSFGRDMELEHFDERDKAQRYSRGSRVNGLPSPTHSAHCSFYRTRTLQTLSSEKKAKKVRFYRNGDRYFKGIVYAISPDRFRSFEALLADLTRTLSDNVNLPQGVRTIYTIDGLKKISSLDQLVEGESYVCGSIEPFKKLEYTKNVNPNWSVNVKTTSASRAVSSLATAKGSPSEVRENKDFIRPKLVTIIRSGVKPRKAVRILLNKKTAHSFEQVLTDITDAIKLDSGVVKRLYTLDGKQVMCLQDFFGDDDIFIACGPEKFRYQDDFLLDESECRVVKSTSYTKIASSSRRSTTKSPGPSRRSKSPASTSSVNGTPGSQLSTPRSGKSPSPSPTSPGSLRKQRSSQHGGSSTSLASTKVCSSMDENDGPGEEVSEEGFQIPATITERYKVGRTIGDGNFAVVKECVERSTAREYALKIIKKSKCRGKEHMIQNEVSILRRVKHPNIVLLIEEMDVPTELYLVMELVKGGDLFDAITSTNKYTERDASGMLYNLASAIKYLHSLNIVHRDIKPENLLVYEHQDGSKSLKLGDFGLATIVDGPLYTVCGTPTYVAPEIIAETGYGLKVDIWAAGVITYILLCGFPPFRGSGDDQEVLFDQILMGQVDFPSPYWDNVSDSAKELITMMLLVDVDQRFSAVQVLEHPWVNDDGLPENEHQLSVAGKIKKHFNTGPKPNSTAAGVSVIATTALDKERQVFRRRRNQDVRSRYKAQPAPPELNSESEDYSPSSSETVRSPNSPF

SW1990 [2] = experiment: Antiproliferative activity against human SW1990 cells assessed as inhibition cell proliferation incubated for 6 days by MTT assay; type: functional, cell-based; settings: SW1990, 144 h
HCT-116 = experiment: Antiproliferative activity against human HCT-116 cells assessed as inhibition cell proliferation incubated for 6 days by MTT assay; type: functional, cell-based; settings: HCT-116, 144 h
CAKI-1 = experiment: Antiproliferative activity against human CAKI-1 cells assessed as inhibition cell proliferation incubated for 6 days by MTT assay; type: functional, cell-based; settings: CAKI-1, 144 h
SW1990 [3] = experiment: Potency index, ratio of DCLK1-IN-1 IC50 to test compound IC50 for human SW1990 cells assessed as inhibition cell proliferation incubated for 6 days by MTT assay; type: functional; settings: time 6 day
SW1990 [4] = experiment: Inhibition of colony formation of human SW1990 cells at 2 uM incubated for 6 days by crystal violet staining based analysis; type: functional, cell-based; settings: time 6.0 day
SW1990 [5] = experiment: Induction of apoptosis in human SW1990 cells assessed as viable cells at 0.5 uM incubated for 6 days by Annexin V/PI staining based flow cytometry (reference value: 92.93 %); type: functional; settings: SW1990, 144 h, time 6 day, read-out: Activity
SW1990 [6] = experiment: Induction of apoptosis in human SW1990 cells assessed as early apoptotic cells at 0.5 uM incubated for 6 days by Annexin V/PI staining based flow cytometry (reference value: 4.55 %); type: functional; settings: time 6 day
SW1990 [7] = experiment: Induction of apoptosis in human SW1990 cells assessed as late apoptotic cells at 0.5 uM incubated for 6 days by Annexin V/PI staining based flow cytometry (reference value: 2.01 %); type: functional; settings: time 6 day
SW1990 [8] = experiment: Induction of apoptosis in human SW1990 cells assessed as necrotic cells at 0.5 uM incubated for 6 days by Annexin V/PI staining based flow cytometry (reference value: 0.50 %); type: functional; settings: time 6 day
SW1990 [9] = experiment: Induction of apoptosis in human SW1990 cells assessed as viable cells at 1 uM incubated for 6 days by Annexin V/PI staining based flow cytometry (reference value: 92.93 %); type: functional; settings: SW1990, 144 h, time 6 day, read-out: Activity
SW1990 [10] = experiment: Induction of apoptosis in human SW1990 cells assessed as early apoptotic cells at 1 uM incubated for 6 days by Annexin V/PI staining based flow cytometry (reference value: 4.55 %); type: functional; settings: time 6 day
SW1990 [11] = experiment: Induction of apoptosis in human SW1990 cells assessed as late apoptotic cells at 1 uM incubated for 6 days by Annexin V/PI staining based flow cytometry (reference value: 2.01 %); type: functional; settings: time 6 day
SW1990 [12] = experiment: Induction of apoptosis in human SW1990 cells assessed as necrotic cells at 1 uM incubated for 6 days by Annexin V/PI staining based flow cytometry (reference value: 0.50 %); type: functional; settings: time 6 day
SW1990 [13] = experiment: Induction of apoptosis in human SW1990 cells assessed as viable cells at 2 uM incubated for 6 days by Annexin V/PI staining based flow cytometry (reference value: 92.93 %); type: functional; settings: SW1990, 144 h, time 6 day, read-out: Activity
SW1990 [14] = experiment: Induction of apoptosis in human SW1990 cells assessed as early apoptotic cells at 2 uM incubated for 6 days by Annexin V/PI staining based flow cytometry (reference value: 4.55 %); type: functional; settings: time 6 day
SW1990 [15] = experiment: Induction of apoptosis in human SW1990 cells assessed as late apoptotic cells at 2 uM incubated for 6 days by Annexin V/PI staining based flow cytometry (reference value: 2.01 %); type: functional; settings: time 6 day
SW1990 [16] = experiment: Induction of apoptosis in human SW1990 cells assessed as necrotic cells at 2 uM incubated for 6 days by Annexin V/PI staining based flow cytometry (reference value: 0.50 %); type: functional; settings: time 6 day
SW1990 [17] = experiment: Induction of cell cycle arrest at G0/G1 phase in human SW1990 cells at 0.5 uM incubated for 6 days by PI staining based flow cytometry (reference value: 49.65 %); type: functional; settings: time 6 day
SW1990 [18] = experiment: Induction of cell cycle arrest at S phase in human SW1990 cells at 0.5 uM incubated for 6 days by PI staining based flow cytometry (reference value: 21.20 %); type: functional; settings: time 6 day
SW1990 [19] = experiment: Induction of cell cycle arrest at G2/M phase in human SW1990 cells at 0.5 uM incubated for 6 days by PI staining based flow cytometry (reference value: 29.15 %); type: functional; settings: time 6 day
SW1990 [20] = experiment: Induction of cell cycle arrest at G0/G1 phase in human SW1990 cells at 1 uM incubated for 6 days by PI staining based flow cytometry (reference value: 49.65 %); type: functional; settings: time 6 day
SW1990 [21] = experiment: Induction of cell cycle arrest at S phase in human SW1990 cells at 1 uM incubated for 6 days by PI staining based flow cytometry (reference value: 21.20 %); type: functional; settings: time 6 day
SW1990 [22] = experiment: Induction of cell cycle arrest at G2/M phase in human SW1990 cells at 1 uM incubated for 6 days by PI staining based flow cytometry (reference value: 29.15 %); type: functional; settings: time 6 day
SW1990 [23] = experiment: Induction of cell cycle arrest at G0/G1 phase in human SW1990 cells at 2 uM incubated for 6 days by PI staining based flow cytometry (reference value: 49.65 %); type: functional; settings: time 6 day

**Q.** How did the inhibition [1] turn out when COc1cc(N2CCN(C)CC2)ccc1Nc1nc(Nc2ccccc2S(=O)(=O)C(C)C)c2nc[nH]c2n1 was run?
**A.** 29.8%

**Q.** What about the IC50 (SW1990 [2]) of the same compound?
**A.** 600 nM

**Q.** What about the IC50 (HCT-116) of the same compound?
**A.** 3000 nM

**Q.** What about the IC50 (CAKI-1) of the same compound?
**A.** 10100 nM

**Q.** And the “Ratio IC50” value (SW1990 [3])?
**A.** 22

**Q.** What about the inhibition (SW1990 [4]) of the same compound?
**A.** Active

**Q.** And the viability at 0.5 µM (SW1990 [5])?
**A.** 78.5%

**Q.** And the Activity (SW1990 [6])?
**A.** 9.19%

**Q.** And the Activity (SW1990 [7])?
**A.** 6.77%

**Q.** And the Activity (SW1990 [8])?
**A.** 5.58%

**Q.** And the viability at 1 µM (SW1990 [9])?
**A.** 65.3%

**Q.** What about the Activity (SW1990 [10]) of the same compound?
**A.** 19.46%

**Q.** What about the Activity (SW1990 [11]) of the same compound?
**A.** 7.06%

**Q.** And the Activity (SW1990 [12])?
**A.** 8.2%

**Q.** And the viability at 2 µM (SW1990 [13])?
**A.** 61%

**Q.** What about the Activity (SW1990 [14]) of the same compound?
**A.** 21.76%

**Q.** What about the Activity (SW1990 [15]) of the same compound?
**A.** 11.39%

**Q.** What about the Activity (SW1990 [16]) of the same compound?
**A.** 5.86%

**Q.** What about the Activity (SW1990 [17]) of the same compound?
**A.** 52.79%

**Q.** What about the Activity (SW1990 [18]) of the same compound?
**A.** 19.66%

**Q.** What about the Activity (SW1990 [19]) of the same compound?
**A.** 27.55%

**Q.** And the Activity (SW1990 [20])?
**A.** 56.78%

**Q.** What about the Activity (SW1990 [21]) of the same compound?
**A.** 19.75%

**Q.** What about the Activity (SW1990 [22]) of the same compound?
**A.** 23.47%

**Q.** And the Activity (SW1990 [23])?
**A.** 63.14%
